According to patent publication US5580549A, “External preparation for skin” (priority 1992, dated 1996):

Experiments:
mushroom tyrosinase = test: Examination for inhibition of tyrosinase activity (L-DOPA substrate, absorbance at 475 nm); type: biochemical; details: for IC50: L-DOPA substrate, pH 8.8 phosphate buffer, 1.5 minutes, room temperature, read-out: ID50 (inhibition of tyrosinase activity)
Method: (1) EXAMINATION FOR INHIBITION OF TYROSINASE ACTIVITY
10 mg L-DOPA (guaranteed reagent) is dissolved at the time of examination in 20 ml of phosphate buffer described in 3) below and prepared 0.05% L-DOPA solution.
3) 0.1-M phosphate buffer
The buffer was prepared at pH 8.8.
Preparation of sample solution
The sample described in TABLE 1 below are diluted by ethanol to the concentration with 3 standards.
The measurement of the tyrosinase activity was carried out by a modified method of Pomerantz, using L-DOPA (guaranteed reagent) as the substrate and measuring the absorbance at 475 nm at which the absorption of dihydroxyphenylalanine chrome (reaction product) exists.
Namely, 1.0 ml of the L-DOPA solution and 1.8 ml of the phosphate buffer were added in 0.1 ml of the sample solutions. 0.1 ml of tyrosinase solution was added and mixed for reaction for 1.5 minutes at room temperature. The absorbance at 475 nm was measured by using a spectrophotometer (type 220 A Spectrophotometer, HITACHI corporation) and the measured value was expressed by T.
Also, 1.0 ml of distilled water instead of the L-DOPA solution. 1.8 ml of the phosphate buffers and 0.1 ml of the sample solutions were mixed, operated in the same way above, measured the absorbance and obtained the value T' as a reagent blank of the sample.
0.1 ml of ethanol instead of the sample solutions was added to the mixture of 1.0 mo of the L-DOPA and 1.8 ml of phosphate buffers, operated in the same way above and obtained the value C as a control.
1.8 ml of phosphate buffers and 0.1 ml of ethanol were added to 1.0 ml of distilled water instead of L-DOPA solution, operated in the same way above and obtained the value C' as a reagent blank of the control.
Inhibition of tyrosinase activity in each sample concentration were obtained by the following formula. The result was described as semilog graph of which a logarithmic scale indicates concentration of the sample and another scale indicates inhibition ratio of the activity.
Incidentally, the values T, T', C, and C' were measured three times and averages were used for the calculation.
Inhibition of tyrosinase activity (%)=100×[1-(T-T')/(C-C')]

human skin [1] = test: Examination for bleaching effect (lotion applied to sunlight-exposed skin, depression effect to the chromatosis); type: in vivo; details: for bleaching effect: lotion with 1.0 wt % sample, each morning and evening, 8 weeks, 10 subjects per group; for improvement of bleaching effect by added ingredient (in words): added to preparation including 2-hydroxy alkoxybenzoic acid
Method: (2) E[…] BLEACHING EFFECT
Lotions were prepared by the following formula, using each sample. Namely, the alcohol phase and aqueous phase according to the following formula were prepared respectively, and both phases were mixed and dissolved according to an ordinal method. […]
______________________________________
Polyoxyethylene (25 moles) hydrogenated castor
Sodium hexametaphosphorate
Ion exchanged water balance
10 subjects for each group were exposed to sunlight in summer for 4 hours (2 hours×2 days). The lotion was applied to the facial skin of medialis brachii once each morning and evening […] after the day exposed to the sunlight for 8 weeks. After the application period, depression effect to the chromatosis which was caused by the ultraviolet irradiation was examined and evaluated, the degree of which was based on The following standard.
.circleincircle.: The number of the subjects who judged the result was "extremely effective" or "effective" were equal to or more than eight (Equal to or more than 80%).
.largecircle.: The number of the subjects who judged the result was "extremely effective" or "effective" were five to seven (from 50% less than 70%)
Δ: The number of the subjects who judged the result was "extremely effective" or "effective" were three to four (from 30% less than 40%)
×: The number of the subjects who judged the result was "extremely effective" or "effective" were less than two (less than 20%)
The inhibition effect to the tyrosinase activity which is essential for producing the melanine and bleaching effect for human skin by the 2-hydroxy alkoxybenzoic acid were examined by using samples described in TABLE 1.
The investigation for improvement of bleaching effect by adding other ingredients were carried out as described below.
Namely, the 2-hydroxy-3-methoxybenzoic acid as the 2-hydroxy alkoxy benzoic acid and sodium hyaluronate as the acid mucopolysaccharide were used for the examination of improvement of bleaching effect.
Lotions for the examination were prepared by adding 0.5 weight % of 2-hydroxy-3-methoxybenzoic acid into the alcohol phase and sodium hyaluronate into the aqueous phase of which the concentration as to be shown in TABLE 3.

Stability of the samples = details: TABLE 1 and TABLE 2; symbols not defined
human skin [2] = details: stated as known; cited from earlier work

Row | Compound | IC50 (mushroom tyrosinase) [mM] | bleaching effect (human skin [1]) | stability (Stability of the samples) | other results
1 | COc1cccc(C(=O)O)c1O [Example 1, 2-hydroxy-3-methoxybenzoic acid] | 21 | .circleincircle. (The number of the subjects who judged the result was "extremely effective" or "effective" were equal to or more than eight (Equal to or more than 80%)) | .smallcircle. | 
2 | COc1ccc(C(=O)O)c(O)c1 [Example 2, 2-hydroxy-4-methoxybenzoic acid] | 1 | .circleincircle. (The number of the subjects who judged the result was "extremely effective" or "effective" were equal to or more than eight (Equal to or more than 80%)) |  | 
3 | COc1ccc(O)c(C(=O)O)c1 [Example 3, 2-hydroxy-5-methoxybenzoic acid] | 4.5 | .circleincircle. (The number of the subjects who judged the result was "extremely effective" or "effective" were equal to or more than eight (Equal to or more than 80%)) | .smallcircle. | 
4 | CCOc1ccc(C(=O)O)c(O)c1 [Example 4, 2-hydroxy-4-ethoxybenzoic acid] | 2 | .circleincircle. (The number of the subjects who judged the result was "extremely effective" or "effective" were equal to or more than eight (Equal to or more than 80%)) | .smallcircle. | 
5 | Cc1cccc(C(=O)O)c1O [Example 5, 2-hydroxy-3-methylbenzoic acid] |  | .circleincircle. (The number of the subjects who judged the result was "extremely effective" or "effective" were equal to or more than eight (Equal to or more than 80%)) |  | 
6 | Cc1ccc(C(=O)O)c(O)c1 [Example 6, 2-hydroxy-4-methylbenzoic acid] |  | .circleincircle. (The number of the subjects who judged the result was "extremely effective" or "effective" were equal to or more than eight (Equal to or more than 80%)) | .smallcircle. | 
7 | Cc1ccc(O)c(C(=O)O)c1 [Example 7, 2-hydroxy-5-methylbenzoic acid] |  | .circleincircle. (The number of the subjects who judged the result was "extremely effective" or "effective" were equal to or more than eight (Equal to or more than 80%)) | .smallcircle. | 
8 | CCc1ccc(C(=O)O)c(O)c1 [Example 8, 2-hydroxy-4-ethylbenzoic acid] |  | .circleincircle. (The number of the subjects who judged the result was "extremely effective" or "effective" were equal to or more than eight (Equal to or more than 80%)) | .smallcircle. | 
9 | Oc1ccc(O)cc1 [a, hydroquinone, reference compound] | 4.2 | Δ (The number of the subjects who judged the result was "extremely effective" or "effective" were three to four (from 30% less than 40%)) |  | side effect (known) (human skin [2]): have side effect
10 | O=C(O)c1cc(O)ccc1O [b, gentisic acid, reference compound] | 13.6 | Δ (The number of the subjects who judged the result was "extremely effective" or "effective" were three to four (from 30% less than 40%)) | Δ | side effect (known) (human skin [2]): have side effect
11 | O=C1O[C@H]([C@@H](O)CO)C(O)=C1O [c, ascorbic acid, reference compound] | 0.3 | .smallcircle. |  | inhibition of tyrosinase activity (in words) (mushroom tyrosinase): high inhibition effect; bleaching effect (in words) (human skin [1]; in vivo): rather low level
12 | O=C(O)CN(CCN(CC(=O)O)CC(=O)O)CC(=O)O [disodium ethylenediamine tetraacetate] |  |  |  | improvement of bleaching effect by added ingredient (in words) (human skin [1]): excellent improvement effect of bleaching
13 | CCOC(=O)c1ccc(O)cc1 [ethyl p-hydroxybenzoate] |  |  |  | improvement of bleaching effect by added ingredient (in words) (human skin [1]): excellent improvement effect of bleaching
14 | COC(=O)c1ccc(O)cc1 [methyl p-hydroxybenzoate] |  |  |  | improvement of bleaching effect by added ingredient (in words) (human skin [1]): excellent improvement effect of bleaching
15 | COc1ccc(C(=O)[O-])c(O)c1.[K+] [potassium 2-hydroxy-4-methoxybenzoate] |  |  |  | subjects who judged the effect was "extremely effective" or "effective" (human skin [1]; bleaching effect examination, lotion): 80%
16 | CC(=O)Oc1c(C)c(C)c2c(c1C)CCC(C)(CCC[C@H](C)CCC[C@H](C)CCCC(C)C)O2 (some centres unmarked) [tocopherol acetate] |  |  |  | improvement of bleaching effect by added ingredient (in words) (human skin [1]): excellent improvement effect of bleaching
17 | sodium hyaluronate |  |  |  | improvement of bleaching effect by added ingredient (in words) (human skin [1]): extremely improved
